Results reported in publication PMC4138410 (Bioorganic & medicinal chemistry, 2014).
Read-outs that look alike come from different tables or passages of the source.

Experiments:
[1] = pH 7.4; for %GSH remaining at 30 min: 0.5 h
[2] = biological target: T1, BoNT/A LC (Clostridium botulinum, UniProt P0DPI0); assay: biochemical; type: biochemical
[3] = biological target: T1, BoNT/A LC; assay: biochemical; type: biochemical; remark: listed apart in the source
[4] = biological target: T1, BoNT/A LC; type: biochemical
[5] = biological target: T1, BoNT/A LC; type: biochemical; remark: listed apart in the source
[6] = biological target: BoNT/A; conditions: cited from earlier work

T1 sequence (P0DPI0 2-425 limits assumed): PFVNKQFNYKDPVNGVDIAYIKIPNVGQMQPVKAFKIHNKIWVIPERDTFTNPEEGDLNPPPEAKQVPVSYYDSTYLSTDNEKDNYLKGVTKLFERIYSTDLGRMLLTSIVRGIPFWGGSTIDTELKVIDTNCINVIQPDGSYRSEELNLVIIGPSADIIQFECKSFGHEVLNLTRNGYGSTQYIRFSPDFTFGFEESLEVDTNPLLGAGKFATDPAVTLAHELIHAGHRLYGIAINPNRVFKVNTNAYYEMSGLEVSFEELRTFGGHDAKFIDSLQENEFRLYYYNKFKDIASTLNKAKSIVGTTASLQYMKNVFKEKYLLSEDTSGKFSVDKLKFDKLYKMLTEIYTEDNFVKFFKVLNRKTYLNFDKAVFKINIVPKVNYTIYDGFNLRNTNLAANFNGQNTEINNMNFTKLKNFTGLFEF

## O=C1C=C(Cl)C(=O)C=C1Cl [Compound 1, 2,5-diCl-BQ]
[1]; 10 s
  %GSH remaining at 10 s: 0%
[1]
  %GSH remaining at 30 min: 0%
[2]
  effect on catalytic activity (in words): completely abrogated catalytic activity

## O=C1C=CC(=O)C=C1 [Compound 3, BQ]
[3]
  irreversible/time-dependent inactivation in 66-mer assay (in words): comparable to the SNAPtide assay

## CC1=CC(=O)C=CC1=O [Compound 12, 2-Me-BQ]
[2]
  kinact/KI: 3.5 M⁻¹ s⁻¹

## O=C1C=CC(=O)c2c(O)ccc(O)c21 [Compound 13, 5,8-diOH-NQ]
[1]
  %GSH remaining at 30 min: 39 (26) %
  %GSH remaining at 1 hour: 39 (26) %

## COc1cccc2c1C(=O)C=CC2=O [Compound 18, 5-OMe-NQ]
[1]
  %GSH remaining at 30 min: 27 (14) %
  %GSH remaining at 1 hour: 27 (14) %

## O=C1C=CC(=O)c2cc(O)ccc21 [Compound 19, 6-OH-NQ]
[1]
  %GSH remaining at 30 min: 32 (22) %
  %GSH remaining at 1 hour: 32 (22) %

## COC1=CC(=O)C(OC)=C(c2ccc(C)cc2)C1=O [Compound 21, 2,5-diOMe-3-Tol-BQ]
[1]
  %GSH remaining at 30 min: 49 (35) %
  %GSH remaining at 1 hour: 49 (35) %

## O=C1C=CC(=O)C(CC(=O)O)=C1 [Compound 22, 2-(3,6-Dioxocyclohexa-1,4-dien-1-yl)acetic acid]
[3]
  kinact/KI: 2.5 M⁻¹ s⁻¹
[4]
  inhibition of BoNT/A in 66-mer assay (in words): fairly active

## COC1=CC(=O)C=C(OC)C1=O [Compound 24, 2,6-diOMe-BQ]
[1]
  %GSH remaining at 30 min: 0%

## CC1=CC(=O)C=C(C)C1=O [Compound 25, 2,6-diMe-BQ]
[1]
  %GSH remaining at 30 min: 0%

## NCC(=O)Nc1ccc(Oc2ccccc2)cc1 [Compound 28, 2-Amino-N-(4-phenoxyphenyl)acetamide]
[5]
  effect on BQ-mediated inactivation of BoNT/A (in words): competed

## O=C1C=CC(=O)C(CNCC(=O)Nc2cccc(OCc3ccccc3)c2)=C1 [Compound 30, N-[3-(Benzyloxy)phenyl]-2-{[(3,6-dioxocyclohexa-1,4-dien-1-yl)methyl]amino}acetamide]
[4]
  fold increase in potency by addition of BQ vs analogous amino acetamide: 26 fold

## O=C1C=CC(=O)C(Nc2cccc(C(=O)NCc3ccc(Oc4ccccc4)cc3)n2)=C1 [Compound 31, 6-[(3,6-Dioxocyclohexa-1,4-dien-1-yl)amino]-N-(4-phenoxybenzyl)picolinamide]
[4]
  fold increase in activity by adding the phenoxyphenyl fragment: 7 fold
  fold increase in potency by addition of BQ vs analogous amino acetamide: 21 fold

## O=C1C=CC(=O)C(Cn2cnc(C(=O)NCc3ccc(-c4ccccc4)cc3)n2)=C1 [Compound 32, N-([1,1′-Biphenyl]-4-ylmethyl)-1-[(3,6-dioxocyclohexa-1,4-dien-1-yl)methyl]-1H-1,2,4-triazole-3-carboxamide]
[4]
  fold increase in potency by addition of BQ vs analogous amino acetamide: 64 fold

## COc1ccc(OC)c(CNCC(=O)Nc2cccc(OCc3ccccc3)c2)c1 [Compound 33, N-[3-(Benzyloxy)phenyl]-2-[(2,5-dimethoxybenzyl)amino]acetamide]
[4]
  inhibition of BoNT/A in 66-mer assay (in words): well tolerated

## COc1ccc(OC)c(Nc2cccc(C(=O)NCc3ccc(Oc4ccccc4)cc3)n2)c1 [Compound 34, 6-[(2,5-Dimethoxyphenyl)amino]-N-(4-phenoxybenzyl)picolinamide]
[4]
  inhibition of BoNT/A in 66-mer assay (in words): decrease in activity

## O=C(NCc1ccc(Oc2ccccc2)cc1)c1ccccn1 [Compound 35, N-(4-phenoxybenzyl)picolinamide]
[4]
  inhibition of BoNT/A in 66-mer assay (in words): high IC50 values

## COc1ccc(OC)c(Cn2cnc(C(=O)NCc3ccc(-c4ccccc4)cc3)n2)c1 [Compound 38, N-([1,1′-Biphenyl]-4-ylmethyl)-1-(2,5-dimethoxybenzyl)-1H-1,2,4-triazole-3-carboxamide]
[4]
  inhibition of BoNT/A in 66-mer assay (in words): decrease in activity

## O=C(NCc1ccc(-c2ccccc2)cc1)c1nc[nH]n1 [Compound 39, N-([1,1′-Biphenyl]-4-ylmethyl)-1H-1,2,4-triazole-3-carboxamide]
[4]
  inhibition of BoNT/A in 66-mer assay (in words): high IC50 values

## C=CC(=O)Nc1cccnc1 [Compound 41]
[3]
  irreversible/time-dependent inactivation in 66-mer assay (in words): no irreversible inhibition
[4]
  inhibition of BoNT/A in 66-mer assay (in words): weakly inhibited

## CS(=O)(=O)SCCCN [MTSPA, (3-aminopropyl)methanethiosulfonate]
[6]
  Ki: 7.7 µM

## CCN1C(=O)C=CC1=O [N-ethylmaleimide, reference compound]
[2]
  inactivation of BoNT/A in SNAPtide screen (in words): weakly inactivated
  inhibitory rank in SNAPtide assay (in words): one of the weakest inhibitors tested

## chicoric acid [CA]
[5]
  effect on BQ-mediated inactivation of BoNT/A (in words): not affected
